Results reported in BindingDB's records for doi:10.1021/acsmedchemlett.7b00169 (2017).

Tested on: Enterococcus faecalis
Test: Antimicrobial activity against vancomycin-resistant Enterococcus faecalis NCTC12201 after 8 hrs

With Nc1c(O)cccc1C(=O)C[C@H](N)C(=O)O the IC50 was 30 µM.
